Assay results reported in paper PMC12524621 (2025).

Key:
Assay in all cases: fluorescence light-up (580/640 nm)
[1] = tested on: G4 antiparallel short-armed binary sensor + analyte (DNA, G4) AACTAGCTAATCCCACTTTTTTAGGGTTAGG/GTTAGGGTTAGGGTTTTTTCTGGGCATATCCAA/TCGGGCCTTGCGCGATTGGATATGCCCAGGTGGGATTAGCTAGTTGGTGGGGTAATGG; details: 37.5 mM K+, 50 mM Na+, Mg2+ (concentration not stated); 25 mM Tris-HCl pH 7, incubated at 37 °C; analyte 1 µM; S/B 3.2
[2] = tested on: G4 antiparallel long-armed binary sensor + analyte (DNA, G4) TTACCCCACCAACTAGCTAATCCCACTTTTTTAGGGTTAGG/GTTAGGGTTAGGGTTTTTTCTGGGCATATCCAATCGCGCAA/TCGGGCCTTGCGCGATTGGATATGCCCAGGTGGGATTAGCTAGTTGGTGGGGTAATGG; details: 37.5 mM K+, 50 mM Na+, Mg2+ (concentration not stated); 25 mM Tris-HCl pH 7, incubated at 55 °C; analyte 1 µM; S/B 3.3
[3] = tested on: G4 antiparallel (Aptamer_G4_antiparallel) (DNA, G4) AGGGTTAGGGTTAGGGTTAGGG; details: 37.5 mM K+, 50 mM Na+, Mg2+ (concentration not stated); 25 mM Tris-HCl pH 7, ~22 °C, 1.7 µM each; S/B 8.7
[4] = tested on: G4 parallel (Aptamer_G4_parallel) (DNA, G4) GGGTAGGGCGGGTTGGG; details: 62.5 mM K+, 50 mM Na+, Mg2+ (concentration not stated); 25 mM Tris-HCl pH 7, ~22 °C, 1.7 µM each; S/B 1.9, poorest of three
[5] = tested on: CleavedCV30S_1 (m + f) (DNA, aptamer) AACGACCACCGGTGTTTTTT/AAAAAACGCCGTACAGGTAACTAGCGTCGTCGTT; details: 62.5 mM K+, 50 mM Na+, Mg2+ (concentration not stated); 25 mM Tris-HCl pH 7; fourth best cleavage site
[6] = tested on: CleavedCV30S_8 (m + f) (DNA, aptamer) AACGACCACCGGTGCGCCGTATTTTTT/AAAAAACAGGTAACTAGCGTCGTCGTT; details: 62.5 mM K+, 50 mM Na+, Mg2+ (concentration not stated); 25 mM Tris-HCl pH 7; second best cleavage site
[7] = tested on: G4 parallel short-armed binary sensor + analyte (DNA, G4) AACTAGCTAATCCCACTTTTTTGGGTAGGG/GGGTTGGGTTTTTTCTGGGCATATCCAA/TCGGGCCTTGCGCGATTGGATATGCCCAGGTGGGATTAGCTAGTTGGTGGGGTAATGG; details: 62.5 mM K+, 50 mM Na+, Mg2+ (concentration not stated); 25 mM Tris-HCl pH 7, incubated at 37 °C; analyte 1 µM; S/B 3
[8] = tested on: CV30S_8 long-armed binary sensor + analyte (DNA, aptamer) TTACCCCACCAACTAGCTAATCCCACTTTAACGACCACCGGTGCGCCGTATTTTTT/AAAAAACAGGTAACTAGCGTCGTCGTTTTTCTGGGCATATCCAATCGCGCAA/TCGGGCCTTGCGCGATTGGATATGCCCAGGTGGGATTAGCTAGTTGGTGGGGTAATGG; details: 62.5 mM K+, 50 mM Na+, Mg2+ (concentration not stated); 25 mM Tris-HCl pH 7, incubated at 55 °C; analyte 1 µM; S/B 2.1
[9] = tested on: CV30S (Aptamer_CV30S) (DNA, aptamer) AACGACCACCGGTGCGCCGTACAGGTAACTAGCGTCGTCGTT; details: 62.5 mM K+, 50 mM Na+, Mg2+ (concentration not stated); 25 mM Tris-HCl pH 7, ~22 °C, 1.7 µM each; S/B 7.8
[10] = tested on: CleavedCV30S_2 (m + f) (DNA, aptamer) AACGACCACCGGTGCGCCGTTTTTTT/AAAAAAACAGGTAACTAGCGTCGTCGTT; details: 62.5 mM K+, 50 mM Na+, Mg2+ (concentration not stated); 25 mM Tris-HCl pH 7; best of eight cleavage sites
[11] = tested on: G4 parallel long-armed binary sensor + analyte (DNA, G4) TTACCCCACCAACTAGCTAATCCCACTTTTTTGGGTAGGG/GGGTTGGGTTTTTTCTGGGCATATCCAATCGCGCAA/TCGGGCCTTGCGCGATTGGATATGCCCAGGTGGGATTAGCTAGTTGGTGGGGTAATGG; details: 62.5 mM K+, 50 mM Na+, Mg2+ (concentration not stated); 25 mM Tris-HCl pH 7, incubated at 55 °C; analyte 1 µM; S/B 3.3
[12] = tested on: CleavedCV30S_3 (m + f) (DNA, aptamer) AACGACCACCGGTGCGCCGTACAGGTTTTTTT/AAAAAAAACTAGCGTCGTCGTT; details: 62.5 mM K+, 50 mM Na+, Mg2+ (concentration not stated); 25 mM Tris-HCl pH 7; third best cleavage site
[13] = tested on: CV30S_8 short-armed binary sensor + analyte (DNA, aptamer) AACTAGCTAATCCCACTTTAACGACCACCGGTGCGCCGTATTTTTT/AAAAAACAGGTAACTAGCGTCGTCGTTTTTCTGGGCATATCCAA/TCGGGCCTTGCGCGATTGGATATGCCCAGGTGGGATTAGCTAGTTGGTGGGGTAATGG; details: 62.5 mM K+, 50 mM Na+, Mg2+ (concentration not stated); 25 mM Tris-HCl pH 7, incubated at 37 °C; analyte 1 µM; S/B 2.2

Measured: binding

CN(C)c1ccc(C(=C2C=CC(=[N+](C)C)C=C2)c2ccc(N(C)C)cc2)cc1
yes: all assays above
